In PubChem BioAssay (NCI):
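The compound was tested at five concentrations on cells cultured in 96-well plates, with a 48-hour exposure period. GI50 marks 50% less growth. TGI: total growth inhibition.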

Legend:
Assay in all cases: NCI tumour cell line growth inhibition, 48 h
786-0 renal = test system: 786-0 renal
A498 renal = test system: A498 renal
A549 NSCLC = test system: A549 NSCLC
ACHN renal = test system: ACHN renal
BT-549 breast = test system: BT-549 breast
CAKI-1 renal = test system: CAKI-1 renal
CCRF-CEM leukemia = test system: CCRF-CEM leukemia
COLO 205 colon = test system: COLO 205 colon
DU-145 prostate = test system: DU-145 prostate
EKVX NSCLC = test system: EKVX NSCLC
HCC-2998 colon = test system: HCC-2998 colon
HCT-116 colon = test system: HCT-116 colon
HCT-15 colon = test system: HCT-15 colon
HL-60(TB) leukemia = test system: HL-60(TB) leukemia
HOP-62 NSCLC = test system: HOP-62 NSCLC
HOP-92 NSCLC = test system: HOP-92 NSCLC
HS 578T breast = test system: HS 578T breast
HT29 colon = test system: HT29 colon
IGROV1 ovarian = test system: IGROV1 ovarian
K-562 leukemia = test system: K-562 leukemia
KM12 colon = test system: KM12 colon
LOX IMVI melanoma = test system: LOX IMVI melanoma
M14 melanoma = test system: M14 melanoma
MALME-3M melanoma = test system: MALME-3M melanoma
MCF7 breast = test system: MCF7 breast
MDA-MB-231 breast = test system: MDA-MB-231 breast
MDA-MB-435 = test system: MDA-MB-435
MDA-MB-468 breast = test system: MDA-MB-468 breast
MOLT-4 leukemia = test system: MOLT-4 leukemia
NCI-H226 lung = test system: NCI-H226 lung
NCI-H23 lung = test system: NCI-H23 lung
NCI-H460 lung = test system: NCI-H460 lung
NCI-H522 lung = test system: NCI-H522 lung
OVCAR-3 ovarian = test system: OVCAR-3 ovarian
OVCAR-4 ovarian = test system: OVCAR-4 ovarian
OVCAR-5 ovarian = test system: OVCAR-5 ovarian
OVCAR-8 ovarian = test system: OVCAR-8 ovarian
PC-3 prostate = test system: PC-3 prostate
RPMI-8226 leukemia = test system: RPMI-8226 leukemia
RXF 393 renal = test system: RXF 393 renal
SF-268 CNS = test system: SF-268 CNS
SF-295 CNS = test system: SF-295 CNS
SF-539 CNS = test system: SF-539 CNS
SK-MEL-2 melanoma = test system: SK-MEL-2 melanoma
SK-MEL-28 melanoma = test system: SK-MEL-28 melanoma
SK-MEL-5 melanoma = test system: SK-MEL-5 melanoma
SK-OV-3 ovarian = test system: SK-OV-3 ovarian
SN12C renal = test system: SN12C renal
SNB-19 CNS = test system: SNB-19 CNS
SR leukemia = test system: SR leukemia
SW-620 colon = test system: SW-620 colon
T-47D breast = test system: T-47D breast
TK-10 renal = test system: TK-10 renal
U251 CNS = test system: U251 CNS
UACC-257 melanoma = test system: UACC-257 melanoma
UACC-62 melanoma = test system: UACC-62 melanoma
UO-31 renal = test system: UO-31 renal

## CC(C)(C)c1cc(-c2cc(-c3ccccc3)[nH]c(=O)c2C#N)cc(C(C)(C)C)c1
786-0 renal
  GI50: 5.14 µM
  TGI: 18.2 µM
A498 renal
  GI50: 10.1 µM
  TGI: 26.1 µM
A549 NSCLC
  GI50: 3.71 µM
  TGI: 15.9 µM
ACHN renal
  GI50: 2.7 µM
  TGI: 7.91 µM
BT-549 breast
  GI50: 4.12 µM
  TGI: 19 µM
CAKI-1 renal
  GI50: 2.81 µM
  TGI: 11 µM
CCRF-CEM leukemia
  GI50: 36.8 µM
  TGI: > 100 µM
COLO 205 colon
  GI50: 37.6 µM
  TGI: > 100 µM
DU-145 prostate
  GI50: 11.3 µM
  TGI: 31.6 µM
EKVX NSCLC
  GI50: 6.58 µM
  TGI: 22.6 µM
HCC-2998 colon
  GI50: 38.8 µM
  TGI: > 100 µM
HCT-116 colon
  GI50: 21.4 µM
  TGI: 61.4 µM
HCT-15 colon
  GI50: 17.8 µM
  TGI: > 100 µM
HL-60(TB) leukemia
  GI50: 49.2 µM
  TGI: > 100 µM
HOP-62 NSCLC
  GI50: 3.25 µM
  TGI: 11.9 µM
HOP-92 NSCLC
  GI50: 2.83 µM
  TGI: 8.64 µM
HS 578T breast
  GI50: 2.63 µM
  TGI: 8.85 µM
HT29 colon
  GI50: 23.4 µM
  TGI: 62 µM
IGROV1 ovarian
  GI50: 3.9 µM
  TGI: 17.6 µM
K-562 leukemia
  GI50: 17.8 µM
  TGI: > 100 µM
KM12 colon
  GI50: > 100 µM
  TGI: > 100 µM
LOX IMVI melanoma
  GI50: 2.02 µM
  TGI: 4.53 µM
M14 melanoma
  GI50: 12 µM
  TGI: 38.3 µM
MALME-3M melanoma
  GI50: 4.53 µM
  TGI: 17 µM
MCF7 breast
  GI50: 12.9 µM
  TGI: 39.1 µM
MDA-MB-231 breast
  GI50: 2.72 µM
  TGI: 8.82 µM
MDA-MB-435
  GI50: 14.6 µM
  TGI: 43.1 µM
MDA-MB-468 breast
  GI50: 10.3 µM
  TGI: 29.7 µM
MOLT-4 leukemia
  GI50: 14.2 µM
  TGI: > 100 µM
NCI-H226 lung
  GI50: 2.69 µM
  TGI: 10.3 µM
NCI-H23 lung
  GI50: 6.22 µM
  TGI: 22.4 µM
NCI-H460 lung
  GI50: 3.56 µM
  TGI: 13.1 µM
NCI-H522 lung
  GI50: 15.1 µM
  TGI: 73.3 µM
OVCAR-3 ovarian
  GI50: 12.4 µM
  TGI: 41.5 µM
OVCAR-4 ovarian
  GI50: 2.85 µM
  TGI: 10.1 µM
OVCAR-5 ovarian
  GI50: 15.2 µM
  TGI: 93.2 µM
OVCAR-8 ovarian
  GI50: 3.5 µM
  TGI: 13.9 µM
PC-3 prostate
  GI50: 11.5 µM
  TGI: 36.3 µM
RPMI-8226 leukemia
  GI50: 37.7 µM
  TGI: > 100 µM
RXF 393 renal
  GI50: 2.4 µM
  TGI: 7.03 µM
SF-268 CNS
  GI50: 7.73 µM
  TGI: 46.3 µM
SF-295 CNS
  GI50: 2.05 µM
  TGI: 4.81 µM
SF-539 CNS
  GI50: 5.11 µM
  TGI: 17.7 µM
SK-MEL-2 melanoma
  GI50: 12 µM
  TGI: 26.5 µM
SK-MEL-28 melanoma
  GI50: 12.8 µM
  TGI: 30.5 µM
SK-MEL-5 melanoma
  GI50: 14.3 µM
  TGI: 34.1 µM
SK-OV-3 ovarian
  GI50: 5.8 µM
  TGI: 22 µM
SN12C renal
  GI50: 4.09 µM
  TGI: 25.7 µM
SNB-19 CNS
  GI50: 3.03 µM
  TGI: 10.8 µM
SR leukemia
  GI50: 19.4 µM
  TGI: > 100 µM
SW-620 colon
  GI50: 18.6 µM
  TGI: > 100 µM
T-47D breast
  GI50: 6.71 µM
  TGI: 45.8 µM
TK-10 renal
  GI50: 4.97 µM
  TGI: 19.9 µM
U251 CNS
  GI50: 3.05 µM
  TGI: 10.8 µM
UACC-257 melanoma
  GI50: 13.5 µM
  TGI: 36.2 µM
UACC-62 melanoma
  GI50: 7.98 µM
  TGI: 22.7 µM
UO-31 renal
  GI50: 4.11 µM
  TGI: 19.1 µM

## O=C1CCC(N2C(=O)c3cccc(NCCOCCOCCOCCC(=O)NCCCC(=O)NC(c4ccc5c(c4)OCO5)c4cc(Cl)c5cccnc5c4O)c3C2=O)C(=O)C1 (stereo not drawn)
786-0 renal
  GI50: 29.6 µM
  TGI: > 99 µM
A498 renal
  GI50: > 99 µM
  TGI: > 99 µM
A549 NSCLC
  GI50: 41.5 µM
  TGI: > 99 µM
ACHN renal
  GI50: 52.5 µM
  TGI: > 99 µM
BT-549 breast
  GI50: 8.58 µM
  TGI: 42.3 µM
CAKI-1 renal
  GI50: 28.3 µM
  TGI: > 99 µM
CCRF-CEM leukemia
  GI50: 3.34 µM
  TGI: > 99 µM
COLO 205 colon
  GI50: 5.04 µM
  TGI: > 99 µM
DU-145 prostate
  GI50: 37.5 µM
  TGI: > 99 µM
EKVX NSCLC
  GI50: 17.2 µM
  TGI: > 99 µM
HCC-2998 colon
  GI50: 6.03 µM
  TGI: 30.8 µM
HCT-116 colon
  GI50: 22.2 µM
  TGI: > 99 µM
HCT-15 colon
  GI50: 37.4 µM
  TGI: > 99 µM
HL-60(TB) leukemia
  GI50: 2.41 µM
  TGI: 23.1 µM
HOP-62 NSCLC
  GI50: 7.19 µM
  TGI: > 99 µM
HOP-92 NSCLC
  GI50: 4.29 µM
  TGI: 52.3 µM
HS 578T breast
  GI50: 8.43 µM
  TGI: > 99 µM
HT29 colon
  GI50: 26.4 µM
  TGI: > 99 µM
IGROV1 ovarian
  GI50: 3.77 µM
  TGI: > 99 µM
K-562 leukemia
  GI50: 5.3 µM
  TGI: > 99 µM
KM12 colon
  GI50: 4.5 µM
  TGI: > 99 µM
LOX IMVI melanoma
  GI50: 4.29 µM
  TGI: 22.2 µM
M14 melanoma
  GI50: 14 µM
  TGI: > 99 µM
MALME-3M melanoma
  GI50: 11.8 µM
  TGI: 90.8 µM
MCF7 breast
  GI50: 3.69 µM
  TGI: > 99 µM
MDA-MB-231 breast
  GI50: 4.32 µM
  TGI: 29.5 µM
MDA-MB-435
  GI50: 5.8 µM
  TGI: > 99 µM
MDA-MB-468 breast
  GI50: 2.56 µM
  TGI: 7.77 µM
MOLT-4 leukemia
  GI50: 4.8 µM
  TGI: > 99 µM
NCI-H226 lung
  GI50: 14.5 µM
  TGI: 72.2 µM
NCI-H23 lung
  GI50: 12.7 µM
  TGI: > 99 µM
NCI-H460 lung
  GI50: 4.81 µM
  TGI: 42.9 µM
NCI-H522 lung
  GI50: 4.39 µM
  TGI: 41.5 µM
OVCAR-3 ovarian
  GI50: 3.33 µM
  TGI: > 99 µM
OVCAR-4 ovarian
  GI50: 14.4 µM
  TGI: 84.3 µM
OVCAR-5 ovarian
  GI50: 19.5 µM
  TGI: > 99 µM
OVCAR-8 ovarian
  GI50: 11.9 µM
  TGI: 75.1 µM
PC-3 prostate
  GI50: 7.83 µM
  TGI: > 99 µM
RPMI-8226 leukemia
  GI50: 7.12 µM
  TGI: > 99 µM
RXF 393 renal
  GI50: 8.56 µM
  TGI: 33.3 µM
SF-268 CNS
  GI50: 4.38 µM
  TGI: > 99 µM
SF-295 CNS
  GI50: 25.4 µM
  TGI: > 99 µM
SF-539 CNS
  GI50: 4.21 µM
  TGI: 26.6 µM
SK-MEL-2 melanoma
  GI50: 4.89 µM
  TGI: 34.6 µM
SK-MEL-28 melanoma
  GI50: 5.95 µM
  TGI: 61 µM
SK-MEL-5 melanoma
  GI50: 14 µM
  TGI: 43.8 µM
SK-OV-3 ovarian
  GI50: 14.6 µM
  TGI: > 99 µM
SN12C renal
  GI50: 5.42 µM
  TGI: > 99 µM
SNB-19 CNS
  GI50: 6.32 µM
  TGI: > 99 µM
SR leukemia
  GI50: 5.26 µM
  TGI: > 99 µM
SW-620 colon
  GI50: 12.6 µM
  TGI: > 99 µM
T-47D breast
  GI50: 5.06 µM
  TGI: > 99 µM
TK-10 renal
  GI50: 62.1 µM
  TGI: > 99 µM
U251 CNS
  GI50: 6.8 µM
  TGI: > 99 µM
UACC-257 melanoma
  GI50: 8.95 µM
  TGI: 85.7 µM
UACC-62 melanoma
  GI50: 3.76 µM
  TGI: 22.7 µM
UO-31 renal
  GI50: 33.6 µM
  TGI: > 99 µM
